{
  "source": "ChEMBL document CHEMBL4311992",
  "about": "“Discovery of 3-(((9H-purin-6-yl)amino)methyl)-4,6-dimethylpyridin-2(1H)-one derivatives as novel tubulin polymerization inhibitors for treatment of cancer” (Eur J Med Chem, 2019)",
  "key": {"MDA-MB-231": {"test_system": "MDA-MB-231", "experiment": "Antiproliferative activity against human MDA-MB-231 cells assessed as reduction in cell viability after 72 hrs by MTT assay", "type": "functional, cell-based", "settings": "MDA-MB-231, 72 h"}, "Mus musculus": {"species": "Mus musculus", "experiment": "Inhibition of recombinant full-length mouse PI3K p110alpha/p85alpha H1047R mutant assessed as residual activity at 10 uM using phosphatidylinositol-4, 5-bisphosphate as substrate measured after 40 mins by HTRF assay"}, "[1]": {"molecular_target": "Mitogen-activated protein kinase kinase kinase 5 (Homo sapiens) (UniProt Q99683)", "experiment": "Inhibition of recombinant human ASK1 (649 to 946 residues) assessed as residual activity at 10 uM using myelin basic protein as substrate measured after 40 mins in presence of [gamma33P]ATP by scintillation counting method"}, "[2]": {"molecular_target": "Misshapen-like kinase 1 (Homo sapiens) (UniProt Q8N4C8)", "sequence (Q8N4C8 whole entry, looked up, the tested form may be a part)": "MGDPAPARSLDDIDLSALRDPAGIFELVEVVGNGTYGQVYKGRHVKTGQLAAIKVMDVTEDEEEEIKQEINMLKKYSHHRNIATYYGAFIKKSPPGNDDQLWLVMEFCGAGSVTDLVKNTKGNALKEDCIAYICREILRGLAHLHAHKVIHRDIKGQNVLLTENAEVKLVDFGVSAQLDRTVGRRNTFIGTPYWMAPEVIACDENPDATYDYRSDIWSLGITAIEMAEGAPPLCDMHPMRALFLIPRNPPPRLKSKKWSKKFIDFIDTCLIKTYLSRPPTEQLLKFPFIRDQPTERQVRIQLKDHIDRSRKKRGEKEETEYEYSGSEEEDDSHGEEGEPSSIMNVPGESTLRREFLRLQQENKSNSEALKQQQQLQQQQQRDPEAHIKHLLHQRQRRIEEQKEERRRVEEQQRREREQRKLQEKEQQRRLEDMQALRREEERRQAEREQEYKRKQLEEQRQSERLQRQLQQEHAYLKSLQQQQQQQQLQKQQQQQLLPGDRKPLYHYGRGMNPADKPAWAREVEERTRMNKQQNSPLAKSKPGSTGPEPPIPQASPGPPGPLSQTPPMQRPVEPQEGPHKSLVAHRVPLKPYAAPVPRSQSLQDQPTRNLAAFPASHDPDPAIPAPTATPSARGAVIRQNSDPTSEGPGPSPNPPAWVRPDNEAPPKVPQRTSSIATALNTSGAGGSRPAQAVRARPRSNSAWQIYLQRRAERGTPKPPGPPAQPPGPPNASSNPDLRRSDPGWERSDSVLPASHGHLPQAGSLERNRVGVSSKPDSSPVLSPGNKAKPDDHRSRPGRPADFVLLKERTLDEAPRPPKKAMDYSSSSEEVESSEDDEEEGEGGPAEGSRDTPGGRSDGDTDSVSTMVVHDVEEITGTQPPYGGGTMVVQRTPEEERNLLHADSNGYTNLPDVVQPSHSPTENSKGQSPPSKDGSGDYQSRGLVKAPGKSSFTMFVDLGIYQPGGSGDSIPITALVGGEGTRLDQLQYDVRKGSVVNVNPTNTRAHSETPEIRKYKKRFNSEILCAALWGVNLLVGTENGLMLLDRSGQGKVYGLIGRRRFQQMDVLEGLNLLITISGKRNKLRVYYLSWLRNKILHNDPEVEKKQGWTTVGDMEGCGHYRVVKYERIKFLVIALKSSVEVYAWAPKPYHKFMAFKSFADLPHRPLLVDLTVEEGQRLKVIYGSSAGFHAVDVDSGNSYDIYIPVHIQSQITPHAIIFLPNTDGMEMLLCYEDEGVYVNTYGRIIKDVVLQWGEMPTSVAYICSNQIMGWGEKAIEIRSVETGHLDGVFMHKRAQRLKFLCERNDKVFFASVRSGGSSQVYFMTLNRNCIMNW", "experiment": "Inhibition of recombinant human MINK (1 to 310 residues) assessed as residual activity at 10 uM using myelin basic protein as substrate measured after 40 mins in presence of [gamma33P]ATP by scintillation counting method"}, "HCT-116 [3]": {"test_system": "HCT-116", "experiment": "Induction of apoptosis in human HCT116 cells assessed as decrease in Bcl2 expression up to 200 nM measured after 48 hrs by Western blot analysis", "type": "functional, cell-based"}, "HCT-116 [4]": {"test_system": "HCT-116", "experiment": "Antitumor activity against human HCT116 cells xenografted in nude BALB/c mouse assessed as reduction in tumor weight at 80 mg/kg, po administered once daily for 4 weeks measured every 3 days during compound dosing", "type": "functional, organism-based"}, "[5]": {"test_system": "Tyrosine-protein kinase ABL1 (Homo sapiens), P00519 [H396P]", "experiment": "Inhibition of recombinant human ABL H396P mutant (27 to end residues) assessed as residual activity at 10 uM using EAIYAAPFAKKK as substrate measured after 40 mins in presence of [gamma33P]ATP by scintillation counting method"}, "[6]": {"molecular_target": "Casein kinase I isoform epsilon (Homo sapiens) (UniProt P49674)", "sequence (P49674 whole entry, looked up, canonical isoform)": "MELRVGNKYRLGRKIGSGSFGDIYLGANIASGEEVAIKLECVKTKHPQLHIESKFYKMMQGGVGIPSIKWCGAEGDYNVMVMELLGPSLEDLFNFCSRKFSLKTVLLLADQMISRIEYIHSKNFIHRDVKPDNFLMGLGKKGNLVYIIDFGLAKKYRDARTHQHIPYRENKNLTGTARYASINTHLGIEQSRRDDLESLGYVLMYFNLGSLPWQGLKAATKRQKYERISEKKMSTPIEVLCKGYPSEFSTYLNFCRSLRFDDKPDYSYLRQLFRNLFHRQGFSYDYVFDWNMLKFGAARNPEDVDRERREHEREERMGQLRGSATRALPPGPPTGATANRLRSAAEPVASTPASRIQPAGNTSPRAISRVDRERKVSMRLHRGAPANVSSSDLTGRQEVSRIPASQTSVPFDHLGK", "experiment": "Inhibition of human CK1epsilon assessed as residual activity at 10 uM using KRRRALS(p)VASLPGL as substrate measured after 120 mins in presence of [gamma33P]ATP by scintillation counting method"}, "[7]": {"molecular_target": "Receptor-interacting serine/threonine-protein kinase 2 (Homo sapiens) (UniProt O43353)", "experiment": "Inhibition of human RIPK2 (1 to 299 residues) using myelin basic protein as substrate measured after 120 mins in presence of [gamma33P]ATP by scintillation counting method", "design": "scale not given: the % may be the effect or the level left"}, "[8]": {"experiment": "Renal toxicity in nude BALB/c mouse at 80 mg/kg, po administered once daily for 4 weeks measured post-last dose by hematoxylin and eosin staining-based assay", "type": "organism-based", "settings": "in vivo, 672 h"}, "[9]": {"molecular_target": "Tyrosine-protein kinase Lyn (Homo sapiens) (UniProt P07948)", "experiment": "Inhibition of recombinant full-length human Lyn assessed as residual activity at 10 uM using poly(Glu, Tyr) 4:1 as substrate measured after 40 mins in presence of [gamma33P]ATP by scintillation counting method"}, "[10]": {"molecular_target": "Death-associated protein kinase 2 (Homo sapiens) (UniProt Q9UIK4)", "sequence (Q9UIK4 whole entry, looked up)": "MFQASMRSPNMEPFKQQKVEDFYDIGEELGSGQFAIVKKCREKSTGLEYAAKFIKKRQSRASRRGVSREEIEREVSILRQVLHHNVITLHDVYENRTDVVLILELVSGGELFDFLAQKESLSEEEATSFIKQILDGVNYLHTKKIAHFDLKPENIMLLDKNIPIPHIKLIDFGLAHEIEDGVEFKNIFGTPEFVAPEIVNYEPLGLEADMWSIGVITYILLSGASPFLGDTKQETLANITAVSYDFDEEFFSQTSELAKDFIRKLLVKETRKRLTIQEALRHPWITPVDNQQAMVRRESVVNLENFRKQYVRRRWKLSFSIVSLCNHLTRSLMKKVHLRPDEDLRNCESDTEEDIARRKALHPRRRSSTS", "experiment": "Inhibition of recombinant full-length human DAPK2 assessed as residual activity at 10 uM using calmodulin as substrate measured after 40 mins in presence of [gamma33P]ATP by scintillation counting method"}, "[11]": {"molecular_target": "Mast/stem cell growth factor receptor Kit (Homo sapiens) (UniProt P10721)", "sequence (P10721 whole entry)": "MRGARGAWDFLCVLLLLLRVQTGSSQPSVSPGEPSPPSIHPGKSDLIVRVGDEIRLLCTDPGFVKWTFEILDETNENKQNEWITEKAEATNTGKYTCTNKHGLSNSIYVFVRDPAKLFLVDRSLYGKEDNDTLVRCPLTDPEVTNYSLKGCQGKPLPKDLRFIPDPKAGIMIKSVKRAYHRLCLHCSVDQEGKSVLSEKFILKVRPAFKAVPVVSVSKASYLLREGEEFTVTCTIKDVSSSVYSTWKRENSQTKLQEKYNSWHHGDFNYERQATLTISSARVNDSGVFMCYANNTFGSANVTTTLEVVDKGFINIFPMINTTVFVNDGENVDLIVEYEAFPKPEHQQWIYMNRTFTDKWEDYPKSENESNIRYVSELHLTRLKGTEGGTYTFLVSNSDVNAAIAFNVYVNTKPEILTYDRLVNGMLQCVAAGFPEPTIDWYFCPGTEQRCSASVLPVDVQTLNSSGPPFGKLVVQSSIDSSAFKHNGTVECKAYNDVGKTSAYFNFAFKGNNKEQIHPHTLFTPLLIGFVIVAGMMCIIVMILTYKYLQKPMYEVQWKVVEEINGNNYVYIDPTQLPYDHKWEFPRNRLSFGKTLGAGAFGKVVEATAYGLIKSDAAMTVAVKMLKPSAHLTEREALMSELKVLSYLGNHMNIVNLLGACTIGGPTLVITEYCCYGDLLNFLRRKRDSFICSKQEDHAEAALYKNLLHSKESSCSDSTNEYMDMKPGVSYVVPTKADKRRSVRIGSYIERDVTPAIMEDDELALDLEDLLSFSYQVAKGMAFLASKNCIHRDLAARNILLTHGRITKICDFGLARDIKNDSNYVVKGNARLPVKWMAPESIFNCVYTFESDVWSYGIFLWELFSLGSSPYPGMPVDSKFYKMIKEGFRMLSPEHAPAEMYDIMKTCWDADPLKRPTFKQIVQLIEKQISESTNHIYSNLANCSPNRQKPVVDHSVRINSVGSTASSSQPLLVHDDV", "experiment": "Inhibition of recombinant human c-Kit (544 to end residues) assessed as residual activity at 10 uM using poly(Glu, Tyr) 4:1 as substrate measured after 40 mins in presence of [gamma33P]ATP by scintillation counting method"}, "[12]": {"molecular_target": "Myosin light chain kinase 2, skeletal/cardiac muscle (Homo sapiens) (UniProt Q9H1R3)", "experiment": "Inhibition of recombinant full-length human MYLK2 assessed as residual activity at 10 uM using KKLNRTLSFAEPG as substrate measured after 40 mins in presence of [gamma33P]ATP by scintillation counting method"}, "[13]": {"test_system": "Homeodomain-interacting protein kinase 2 (Homo sapiens), Q9H2X6 [UNDEFINED MUTATION]", "experiment": "Inhibition of recombinant human HIPK2 I471N mutant (165 to 564 residues) assessed as residual activity at 10 uM using myelin basic protein as substrate measured after 40 mins in presence of [gamma33P]ATP by scintillation counting method"}, "[14]": {"molecular_target": "TGF-beta receptor type-2 (Homo sapiens) (UniProt P37173)", "experiment": "Inhibition of human TGFBR2 (188 to end residues) using myelin basic protein as substrate measured after 120 mins in presence of [gamma33P]ATP by scintillation counting method", "design": "scale not given: the % may be the effect or the level left"}, "[15]": {"molecular_target": "Tau-tubulin kinase 2 (Homo sapiens) (UniProt Q6IQ55)", "experiment": "Inhibition of human TTBK2 (1 to 331 residues) using Casein as substrate measured after 40 mins in presence of [gamma33P]ATP by scintillation counting method", "design": "scale not given: the % may be the effect or the level left"}, "[16]": {"molecular_target": "Homeodomain-interacting protein kinase 3 (Homo sapiens) (UniProt Q9H422)", "experiment": "Inhibition of recombinant human HIPK3 (161 to 562 residues) assessed as residual activity at 10 uM using myelin basic protein as substrate measured after 40 mins in presence of [gamma33P]ATP by scintillation counting method"}, "[17]": {"molecular_target": "LIM domain kinase 1 (Homo sapiens) (UniProt P53667)", "experiment": "Inhibition of recombinant human LIMK1 (285 to 638 residues) assessed as residual activity at 10 uM using cofilin as substrate measured after 40 mins in presence of [gamma33P]ATP by scintillation counting method"}, "[18]": {"molecular_target": "Serine/threonine-protein kinase BRSK1 (Homo sapiens) (UniProt Q8TDC3)", "sequence (Q8TDC3 whole entry)": "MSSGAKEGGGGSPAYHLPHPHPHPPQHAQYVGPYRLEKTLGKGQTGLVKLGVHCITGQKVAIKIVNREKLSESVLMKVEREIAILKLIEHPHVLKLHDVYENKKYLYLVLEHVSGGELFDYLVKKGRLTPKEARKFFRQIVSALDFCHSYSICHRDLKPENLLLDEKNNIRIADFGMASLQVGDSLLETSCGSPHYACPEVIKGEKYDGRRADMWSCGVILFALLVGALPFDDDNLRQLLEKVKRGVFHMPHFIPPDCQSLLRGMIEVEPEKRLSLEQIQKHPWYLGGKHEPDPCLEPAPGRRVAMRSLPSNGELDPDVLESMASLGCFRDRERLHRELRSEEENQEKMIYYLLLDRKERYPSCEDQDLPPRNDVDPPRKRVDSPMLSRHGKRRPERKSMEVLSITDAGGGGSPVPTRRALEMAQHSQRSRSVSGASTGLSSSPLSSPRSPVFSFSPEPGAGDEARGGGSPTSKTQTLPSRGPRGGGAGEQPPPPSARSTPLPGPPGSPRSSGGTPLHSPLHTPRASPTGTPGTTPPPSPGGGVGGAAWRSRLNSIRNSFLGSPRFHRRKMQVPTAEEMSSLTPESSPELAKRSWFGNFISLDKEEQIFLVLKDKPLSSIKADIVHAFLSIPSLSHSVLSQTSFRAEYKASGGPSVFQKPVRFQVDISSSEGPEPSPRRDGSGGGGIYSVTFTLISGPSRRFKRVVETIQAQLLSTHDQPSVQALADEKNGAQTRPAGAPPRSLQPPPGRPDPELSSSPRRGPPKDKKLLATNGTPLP", "experiment": "Inhibition of recombinant human BrSK1 (2 to end residues) assessed as residual activity at 10 uM using KKKVSRSGLYRSPSMPENLNRPR as substrate measured after 120 mins in presence of [gamma33P]ATP by scintillation counting method"}, "[19]": {"molecular_target": "Serine/threonine-protein kinase PLK2 (Homo sapiens) (UniProt Q9NYY3)", "experiment": "Inhibition of human Snk (65 to 409 residues) using casein as substrate measured after 40 mins in presence of [gamma33P]ATP by scintillation counting method", "design": "scale not given: the % may be the effect or the level left"}, "[20]": {"test_system": "PI3-kinase p110-alpha/p85-alpha (Homo sapiens), P27986+P42336 [E542K]", "experiment": "Inhibition of recombinant full-length human PI3K p110alpha/p85alpha E542K mutant assessed as residual activity at 10 uM using phosphatidylinositol-4, 5-bisphosphate as substrate measured after 40 mins by fluorescence assay", "type": "protein-complex assay"}, "[21]": {"test_system": "Serine/threonine-protein kinase Sgk1 (Homo sapiens), O00141 [S422D]", "experiment": "Inhibition of recombinant human SGK S422D mutant (60 to end residues) assessed as residual activity at 10 uM using GRPRTSSFAEGKK as substrate measured after 40 mins in presence of [gamma33P]ATP by scintillation counting method"}, "[22]": {"molecular_target": "Serine/threonine-protein kinase SIK2 (Homo sapiens) (UniProt Q9H0K1)", "sequence (Q9H0K1 whole entry, looked up, the tested form may be a part)": "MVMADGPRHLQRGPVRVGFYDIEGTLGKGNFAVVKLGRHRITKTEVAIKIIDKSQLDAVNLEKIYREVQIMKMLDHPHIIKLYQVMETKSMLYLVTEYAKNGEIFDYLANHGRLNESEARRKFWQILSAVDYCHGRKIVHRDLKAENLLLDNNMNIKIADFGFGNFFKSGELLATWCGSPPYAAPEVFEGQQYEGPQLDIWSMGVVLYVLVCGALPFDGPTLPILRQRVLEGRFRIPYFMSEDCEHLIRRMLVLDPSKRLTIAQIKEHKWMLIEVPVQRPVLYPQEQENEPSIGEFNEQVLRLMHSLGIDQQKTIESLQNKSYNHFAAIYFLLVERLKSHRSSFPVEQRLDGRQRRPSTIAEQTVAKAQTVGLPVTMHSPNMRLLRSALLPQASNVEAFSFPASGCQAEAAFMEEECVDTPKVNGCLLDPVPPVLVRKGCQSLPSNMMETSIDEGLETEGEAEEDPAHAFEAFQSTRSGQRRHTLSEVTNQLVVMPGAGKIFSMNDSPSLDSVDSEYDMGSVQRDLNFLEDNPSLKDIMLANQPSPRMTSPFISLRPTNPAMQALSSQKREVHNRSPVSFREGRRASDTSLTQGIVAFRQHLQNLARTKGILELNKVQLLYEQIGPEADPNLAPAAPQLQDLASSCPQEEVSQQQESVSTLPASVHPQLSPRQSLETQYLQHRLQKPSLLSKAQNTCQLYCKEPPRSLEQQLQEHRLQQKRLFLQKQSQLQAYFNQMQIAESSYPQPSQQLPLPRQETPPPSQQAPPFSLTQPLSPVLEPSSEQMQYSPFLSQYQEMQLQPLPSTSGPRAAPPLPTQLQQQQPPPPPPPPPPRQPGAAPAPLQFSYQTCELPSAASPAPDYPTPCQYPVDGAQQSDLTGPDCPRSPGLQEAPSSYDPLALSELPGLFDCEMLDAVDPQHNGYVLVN", "experiment": "Inhibition of human SIK2 (1 to 276 residues) using KKKVSRSGLYRSPSMPENLNRPR as substrate measured after 40 mins in presence of [gamma33P]ATP by scintillation counting method", "design": "scale not given: the % may be the effect or the level left"}, "SW-620": {"test_system": "SW-620", "experiment": "Induction of apoptosis in human SW620 cells assessed as necrotic cells at 100 nM measured after 48 hrs by Annexin V-FITC/propidium iodide staining-based flow cytometry (reference value: 2.71%)", "type": "functional"}},
  "note": "Active and inactive are the calls of the source. The rule behind the calls is not given here.",
  "data": [
    {"smiles": "Cc1cc(C)c(CNc2nc(Cl)nc3c2ncn3C2CCCC2)c(=O)[nH]1", "values": [
      {"measurement": "IC50", "setting": "MDA-MB-231", "result": 200, "unit": "nM"},
      {"measurement": "Activity", "setting": "Mus musculus", "result": 99, "unit": "%"},
      {"measurement": "Activity", "setting": "[1]", "result": 102, "unit": "%"},
      {"measurement": "Activity", "setting": "[2]", "result": 94, "unit": "%"},
      {"measurement": "Activity", "setting": "HCT-116 [3]", "result": "Active"},
      {"measurement": "Activity", "setting": "HCT-116 [4]", "result": "Active"},
      {"measurement": "Activity", "setting": "[5]", "result": 104, "unit": "%"},
      {"measurement": "Activity", "setting": "[6]", "result": 100, "unit": "%"},
      {"measurement": "Activity", "setting": "[7]", "result": 106, "unit": "%"},
      {"measurement": "Activity", "setting": "[8]", "result": "Non-Toxic"},
      {"measurement": "Activity", "setting": "[9]", "result": 119, "unit": "%"},
      {"measurement": "Activity", "setting": "[10]", "result": 97, "unit": "%"},
      {"measurement": "Activity", "setting": "[11]", "result": 99.5, "unit": "%"},
      {"measurement": "Activity", "setting": "[12]", "result": 98, "unit": "%"},
      {"measurement": "Activity", "setting": "[13]", "result": 104, "unit": "%"},
      {"measurement": "Activity", "setting": "[14]", "result": 71, "unit": "%"},
      {"measurement": "Activity", "setting": "[15]", "result": 104, "unit": "%"},
      {"measurement": "Activity", "setting": "[16]", "result": 106, "unit": "%"},
      {"measurement": "Activity", "setting": "[17]", "result": 101, "unit": "%"},
      {"measurement": "Activity", "setting": "[18]", "result": 140, "unit": "%"},
      {"measurement": "Activity", "setting": "[19]", "result": 106, "unit": "%"},
      {"measurement": "Activity", "setting": "[20]", "result": 97.5, "unit": "%"},
      {"measurement": "Activity", "setting": "[21]", "result": 136, "unit": "%"},
      {"measurement": "Activity", "setting": "[22]", "result": 97, "unit": "%"},
      {"measurement": "Activity", "setting": "SW-620", "result": 6.55, "unit": "%"}
    ]}
  ]
}
